These results are taken from US20230302025A1, “METHODS FOR MAINTAINING MICROVASCULAR INTEGRITY” (SCISPARC LTD., priority 2020, published 2023).

Entries after “also recorded” stand apart in the source; their conditions may differ.

The conditions of series [1]: intravenous, humans; cited from earlier work.
For series [2], the system named is blood-brain barrier (BBB) of mTBI rats. Briefly: Contrast-enhanced MRI of blood-brain barrier permeability in repeated mild TBI rat model. The class given is in vivo, Sprague-Dawley rats.
The test system of series [3] is mTBI rats. The experiment in a line: Electrocorticographic recording of paroxysmal slow wave events (PSWEs) in repeated mild TBI rat model. It counts as in vivo, Sprague-Dawley rats.
For series [4], the system named is cortical microvasculature (BBB) of mTBI rats. The experiment in a line: Intravital microscopy (open window, fluorescent angiography) of cortical microvascular permeability in repeated mild TBI rat model. The class given is in vivo, Sprague-Dawley rats. The settings on record: repeated THC 0.002 mg/kg i.p.; 6-8 days after first injury; vs vehicle-injected controls.

Series [5] relates to mTBI rats. The experiment in a line: Neurological scoring / neurological complications after repeated mild TBI. The class given is in vivo, Sprague-Dawley rats. The note with it: daily injection of THC 0.002 mg/kg i.p.; 60% without THC.

Take `CCCCCc1cc(O)c2c(c1)OC(C)(C)[C@@H]1CCC(C)=C[C@@H]21` [dronabinol, (−)-trans-[…]9-tetrahydrocannabinol]: the estimated lethal dose in series [1] is reported as 30 mg/kg.

As to `CCCCCc1cc(O)c2c(c1)OC(C)(C)[C@@H]1CCC(C)=C[C@@H]21` [THC, Δ9-tetrahydrocannabinol], the “% of brain volume with pathological (damaged) BBB” value in series [2] (repeated (daily, after each impact) THC 0.002 mg/kg i.p., CE-MRI after rmTBI, vs TBI vehicle) was “Moderate decrease”. Moreover, the “% of brain volume with pathological voxels compared to non-injured controls” value in series [2] (repeated THC 0.002 mg/kg i.p., CE-MRI, FIG. 1D) is “not different compared to controls”. Also, the “effect on trauma-induced BBB breakdown” value in series [2] (repeated THC, data from both CE-MRI and intravital microscopy) is “mild protective and therapeutic effect”. Further, the “number of PSWEs” value is given as “mild reduction; also recorded: lower occurrence” in the series on mTBI rats [3] (repeated THC 0.002 mg/kg i.p., ECoG 3-4 weeks following injury) and “significant increase” with mTBI rats [3] (single THC dose (THC1) 0.002 mg/kg i.p. after first impact, vs controls, FIG. 3B). For the same compound, the “cortical microvascular (BBB) permeability” value in series [4] is reported as “lower; also recorded: reduced”. Further, the “risk for neurological complications” value with mTBI rats [5] turned out to be 35%.
